Like-named read-outs stand apart in the source and are kept apart here.
What was measured:
mice = assay: Acute toxicity of streptomycin-ligand preparations, subcutaneous (Table II); type: in vivo; settings: for effectiveness in reducing the toxicity of streptomycin: ligand mixed with streptomycin (1:3 or 1:1 molar ratio), 1000 mg streptomycin per kg subcutaneously in mice
Swiss Webster mice [1] = assay: LD50 of aminoglycoside antibiotics with and without phosphorylcholine, subcutaneous; type: in vivo; settings: mg aminoglycoside antibiotic per kg body weight, survivors after 24 hours
Procedure: (§1) In order to determine the LD₅₀ of the aminoglycoside preparations a quantity of antibiotic was dissolved in 20 m| distilled water with or without phosphorylcholine to achieve a final 1:3 molar ratio of antibiotic to ligand. Then, 0.6 m| aliquots of serial dilutions of the aminoglycoside preparations were injected subcutaneously into Swiss Webster mice (ten animals per group, average weight 23 g each). After 24 hours the number of survivors in each group was determined and the LD₅₀ and 95% confidence limits for each were computed according to the Spearman-Karber Method for Quantal Data (from Finney, 1952, Statistical Method in Biological Assay, Hafner Pub. Co., New York).

erythrocytes = assay: Hemolytic effect on erythrocytes (released hemoglobin); type: cell-based
C. albicans = assay: Minimum inhibitory concentration for C. albicans; type: cell-based; settings: 50% growth inhibition, overnight at 35° C
Procedure: The minimum inhibitory concentration (M.I.C.) of the amphotericin B preparations for C. albicans was determined as follows: each of the 5 preparations was serially diluted in a 96 round-bottomed well plate, using 1/2 step dilutions of drug in 50 »| Mico-broth per well and 3 wells for each dilution step. After dilutions were completed, each well received 50 »| broth containing 10³ cells of C. albicans. Plates were incubated overnight at 35° C in a humidified atmosphere.

L cells = assay: Cloning efficiency of L cells; type: cell-based
Procedure: Plastic petri dishes (35 mm diameter) were seeded with 50 L-cells per dish in 2 m| MEM plus 10% fetal calf serum containing one of the amphotericin B preparations (2 dishes per amphotericin B preparation). The dishes were incubated for 10 days and the cloned cultures were stained with crystal violet as described above.

L-cells [2] = assay: Cytotoxicity for L-cells (50% growth inhibition); settings: 72 hours at 37°C
[3] = LD50 of aminoglycoside antibiotics with and without phosphorylcholine, subcutaneous; type: in vivo; settings: mouse, in vivo, sc, mg aminoglycoside antibiotic per kg body weight, Swiss Webster mice, survivors after 24 hours, read-out: LD₅₀
Procedure: as §1

patients = settings: cited from earlier work
Swiss Webster mice [4] = assay: Toxicity (lethality) of streptomycin administered with and without ligand, subcutaneous; type: in vivo; settings: streptomycin 1000 mg/kg subcutaneously, ligand 1:3 molar ratio, mixed immediately prior to administration
[5] = in vitro; cited from earlier work
L-cells [6] = settings: mouse, 72 h
male Swiss-Webster mice = settings: mouse, in vivo, iv, 400 mg/kg
Procedure: Six male Swiss-Webster mice weighing 27 gms each were given a single intravenous injection of 400 mg/kg PEG-cholesterol.

[7] = AmB preparations at 25 @g amphotericin B/m| medium, 10 days

With NCCOP(=O)(O)O [phosphorylethanolamine] the “effectiveness in reducing aminoglycoside toxicity” value (mice; general statement on ligands) was “less effective”.

Work on Gentamycin yielded an LD₅₀ (Swiss Webster mice [1]) of 692 mg/kg.

In the case of C[N+](C)(C)CCOP(=O)(O)O [phosphorylcholine], the “effectiveness in reducing aminoglycoside toxicity” value (mice; general statement on ligands) is reported as “very effective in reducing aminoglycoside toxicity” and the “effectiveness in reducing the toxicity of streptomycin” value (mice) is reported as “very effective in reducing the toxicity of streptomycin”.

Work on deoxycholate [DOC] yielded an OD550nm (erythrocytes; concentration 1 @g/m|, 2% erythrocytes, 37°C, 20 hours) of 0.03, an OD550nm (erythrocytes; concentration 2 @g/m|, 2% erythrocytes, 37°C, 20 hours) of 0.03 and an OD550nm (erythrocytes; concentration 2.5 @g/m|, 2% erythrocytes, 37°C, 20 hours) of 0.03. For the same compound, the OD550nm (erythrocytes; concentration 15 @g/m|, 2% erythrocytes, 37°C, 20 hours) was 0.03, the OD550nm (erythrocytes; concentration 30 @g/m|, 2% erythrocytes, 37°C, 20 hours) was 0.03 and the OD550nm (erythrocytes; concentration 60 @g/m|, 2% erythrocytes, 37°C, 20 hours) was 0.06. The OD550nm (erythrocytes; concentration 125 @g/m|, 2% erythrocytes, 37°C, 20 hours) was 0.23, the OD550nm (erythrocytes; concentration 250 @g/m|, 2% erythrocytes, 37°C, 20 hours) was 0.47 and the “Minimum Inhibitory Concentration of Amphotericin B, C. albicans” value (C. albicans) was 5,000+ @g/m|. For the same compound, the “Number of Clones, % of Control” value (L cells; [7]) was 70.8%, the “Number of Clones, Number of Colonies” value (L cells; [7]) was 68 and the “Size of Colonies, % of Control” value (L cells; [7]) was 92%. For the same compound, the “Size of Colonies, Mean Diameter” value (L cells; [7]) was 2.3 and the “Minimum Inhibitory Concentration of Amphotericin B, L cells” value (L-cells [2]) was 250.0 @g/m|.

For C[N+](C)(C)CCOP(=O)([O-])OC[C@H](O)CO [glycerolphosphorylcholine], the “effectiveness in reducing aminoglycoside toxicity” value (mice; general statement on ligands) was “less effective”.

In the case of egg lysophosphatidylcholine, the “effectiveness in reducing aminoglycoside toxicity” value (mice; mouse, in vivo) is reported as “very effective in reducing aminoglycoside toxicity”.

For [H]/N=C(/N)N[C@H]1[C@H](O)[C@@H](O)[C@H](O[C@@H]2O[C@@H](C)[C@](O)(C=O)[C@H]2O[C@@H]2O[C@@H](CO)[C@H](O)[C@@H](O)[C@@H]2NC)[C@@H](N/C(N)=N\[H])[C@@H]1O [Streptomycin, streptomycin], the LD50 at 24 h [3] is listed as 741 mg/kg, the “patients manifesting some vestibular disturbance” value (patients; 2g daily for 60 to 120 days) is listed as about 75% and the “incidence of vestibular disturbance” value (patients; dose reduced to 1g daily) is listed as 25%. For the same compound, the “Lethality No. Dead/No. Inoculated” value (Swiss Webster mice [4]) was 7/8 and the “Percent Lethality” value (Swiss Webster mice [4]) was 87.5%.

For C[C@@H]1[C@H](O)[C@@H](C)/C=C/C=C/C=C/C=C/C=C/C=C/C=C/[C@H](O[C@@H]2O[C@H](C)[C@@H](O)[C@H](N)[C@@H]2O)C[C@@H]2O[C@](O)(C[C@@H](O)C[C@@H](O)[C@H](O)CC[C@@H](O)C[C@@H](O)CC(=O)O[C@H]1C)C[C@H](O)[C@H]2C(=O)O [amphotericin B], the “affinity for ergosterol compared to cholesterol” value [5] is given as “approximately ten times greater affinity”.

With O=P(O)(O)O[C@H]1[C@H](OP(=O)(O)O)[C@@H](OP(=O)(O)O)[C@H](OP(=O)(O)O)[C@@H](OP(=O)(O)O)[C@H]1OP(=O)(O)O [inositol hexaphosphate] the “effectiveness in reducing the toxicity of streptomycin” value (mice) was “very effective in reducing the toxicity of streptomycin”.

Neomycin showed an LD₅₀ (Swiss Webster mice [1]) of 371 mg/kg.

With “polyethylene glycol-cholesterol [PEG-Chol]” the OD550nm (erythrocytes) was 0.03, the “Minimum Inhibitory Concentration of Amphotericin B, C. albicans” value (C. albicans) was 25,000+ @g/m| and the “Minimum Inhibitory Concentration of Amphotericin B, L cells” value (L-cells [6]) was 500.0+ @g/m|. The “Number of Clones, Number of Colonies” value (L cells) was 83, the “Size of Colonies, Mean Diameter” value (L cells) was 2.5 and the “Number of Clones, % of Control” value (L cells; mouse, l cells, 240 h) was 86.5%. The “Size of Colonies, % of Control” value (L cells; mouse, l cells, 240 h) was 100% and the “overt signs of toxicity” value (male Swiss-Webster mice) was “No overt signs of toxicity”.

Source: EP0180581B2, “DRUG PREPARATIONS OF REDUCED TOXICITY” (THE LIPOSOME COMPANY, INC., priority 1984, dated 1985)
